Reference: patent publication US20240316141A1, “The Use of Thiourea and Thiourea Derivatives As Potentiators of Antibacterial Activity of Peptoids” (The Board of Trustees of the Leland Stanford Junior …, priority 2021, published 2024)

What was measured:
bacterial growth [1] = assay: MIC of antimicrobial peptide in the presence and absence of thiourea, 24 hour incubation; type: cell-based; conditions: presence vs absence of thiourea
Procedure: FIG. 7. The minimum inhibitory concentration (MIC) of an antimicrobial peptide (LL-37) in the presence and absence of thiourea was examined. MIC was defined as the lowest concentration of an antimicrobial peptide that will inhibit the bacterial growth (i.e., increasing absorbance at 600 nm) after a 24 hour incubation.

bacterial growth [2] = assay: MIC of peptoid in the presence and absence of urea, 24 hour incubation; type: cell-based; conditions: MIC of TM5 in presence vs absence of urea
Procedure: FIG. 8. The minimum inhibitory concentration (MIC) of peptoid (TM5) in the presence and absence of urea was examined. MIC was defined as the lowest concentration of peptoid that will inhibit the bacterial growth (i.e., increasing absorbance at 600 nm) after a 24 hour incubation.

bacterial growth [3] = assay: MIC of different peptoids in the presence and absence of thiourea; type: cell-based; conditions: presence vs absence of thiourea; FIGS. 6A-6E
Pseudomonas aeruginosa = assay: MIC of peptoid in the presence and absence of thiourea, 24 h incubation, absorbance at 600 nm; type: cell-based; conditions: presence vs absence of thiourea
Procedure: FIG. 1. The minimum inhibitory concentration (MIC) of peptoid (TM5) in the presence and absence of thiourea was examined. MIC was defined as the lowest concentration of peptoid that will inhibit the bacterial growth (i.e., increasing absorbance at 600 nm) after 24 h incubation.

Klebsiella pneumoniae = assay: as above; type: cell-based; conditions: Klebsiella pneumoniae (ciprofloxacin-resistant), presence vs absence of thiourea
Procedure: FIG. 2. The minimum inhibitory concentration (MIC) of peptoid (TM5) in the presence and absence of thiourea was examined. MIC was defined as the lowest concentration of peptoid that will inhibit the bacterial growth (i.e., increasing absorbance at 600 nm) after 24 h incubation.

Staphylococcus aureus = assay: as above; type: cell-based; conditions: presence vs absence of thiourea
Procedure: FIG. 3. The minimum inhibitory concentration (MIC) of peptoid (TM5) in the presence and absence of thiourea was examined. MIC was defined as the lowest concentration of peptoid that will inhibit the bacterial growth (i.e., increasing absorbance at 600 nm) after 24 h incubation.

[4] = test system: PA01 ofloxacin induced persister cells; assay: Eradication of ofloxacin induced persister cells; type: cell-based, Pseudomonas aeruginosa; conditions: PA01 persister cells from stationary phase culture treated with ofloxacin 5 μg/ml for 24 h

Question: With LL-37: antimicrobial peptide (LL-37) as the compound, how does the “synergy of thiourea with antimicrobial peptide (MIC)” value (bacterial growth [1]) read?
Answer: Its value is “did not synergize”.

Question: `NC(N)=O` [urea] was tested. Which “synergy of urea with peptoid TM5 (MIC)” value (bacterial growth [2]) did it give?
Answer: The value was “did not synergize”.

Question: How did the “effect of thiourea on antimicrobial activity (MIC) of different peptoids” value (shortened to “effect of thiourea … of different peptoids”) (bacterial growth [3]) turn out when “H—(NLys-Nspe(p-Br)-Nspe(p-Br))2—NH2 [TM4]” was run?
Answer: Its value is “increases antimicrobial activity”.

Question: For “H—(NLys-Nspe-Nspe)3-NLys-Nspe-NLys-NH2 [TM16]”, which “effect of thiourea … of different peptoids” value (bacterial growth [3]) is on record?
Answer: The value was “increases antimicrobial activity”.

Question: How did the “effect of thiourea … of different peptoids” value (bacterial growth [3]) turn out when “H-Ntridec-(NLys-Nspe-Nspe(p-Br))2-NLys-NH2 [TM20]” was run?
Answer: The value was “increases antimicrobial activity”.

Question: H-Ntridec-NLys-Nspe-Nspe-NLys-NH2 [TM5] was tested. Which “effect of thiourea on minimum inhibitory concentration (MIC) / antimicrobial activity of peptoid” value (Pseudomonas aeruginosa) did it give?
Answer: Its value is “increases antimicrobial activity”.

Question: What about the “effect of thiourea on minimum inhibitory concentration (MIC) / antimicrobial activity of peptoid” value (Klebsiella pneumoniae) of the same compound?
Answer: Its value is “increases antimicrobial activity”.

Question: What about the “effect of thiourea on minimum inhibitory concentration (MIC) / antimicrobial activity of peptoid” value (Staphylococcus aureus) of the same compound?
Answer: The value was “increases antimicrobial activity”.

Question: And the “effect of thiourea on persister eradication capability” value [4]?
Answer: The value was “enhance the persister eradication capability”.

Question: And the “effect of thiourea … of different peptoids” value (bacterial growth [3])?
Answer: Its value is “increases antimicrobial activity”.
